Converted amounts (≈) assume the structure as drawn.
What was measured:
[1] = tested on: S. epidermidis; assay: In vitro broth microdilution minimal inhibitory concentration, S. epidermidis (Table I); type: cell-based; conditions: Staphylococcus epidermidis; broth microdilution, Mueller-Hinton broth, 24 hour; read-out: MIC (minimal inhibitory concentration), S. epidermidis
Source text: (§1) A list is presented in Table I of analogs which exert an in-vitro antibacterial effect.

[2] = tested on: E. Coli; assay: In vitro broth microdilution minimal inhibitory concentration, E. Coli (Table I); type: cell-based; conditions: Escherichia coli; broth microdilution, Mueller-Hinton broth, 24 hour; read-out: MIC (minimal inhibitory concentration), E. Coli
Source text: as §1

[3] = tested on: E. Coli; assay: In vitro antibacterial spectrum, agar dilution (Table II); type: cell-based; conditions: Escherichia coli, 86 isolates, 24-hour, 35° C.
Method: (§2) A summary of the in-vitro antibacterial spectrum of l-4-[5-(hydroxymethyl)-2-oxooxazolidin-3-yl]benzenesulfonamide, is shown in Table II. The minimal inhibitory concentrations for the aerobic and facultative anaerobic test isolates representing two gram-positive and eleven gram-negative genera were determined by an agar dilution method. The method is state of the art and is as follows. Mueller-Hinton agar plates are prepared containing two-fold compound concentrations ranging from 128 μg/ml to 1.0 μg/ml for the susceptibility testing of the bacterial strains except Neisseria gonorrhoea and Hemophilus sp. The latter organisms are tested using GC agar containing 1% Bacto-Supplement C (Difco Laboratories, Detroit, Mich.) and are incubated under 6% CO2. The agar plates are inoculated with a 0.001 ml calibrated loopful of bacterial inoculum diluted to contain 5×10^6 colony-forming units (CFU) per ml.

[4] = tested on: Enterobacter sp.; assay: as above; type: cell-based; conditions: 41 isolates, 24-hour, 35° C.
Method: as §2

[5] = tested on: Haemophilus sp.; assay: as above; type: cell-based; conditions: 4 isolates, GC agar, 6% CO2, 24-hour, 35° C.
Method: as §2

[6] = tested on: Klebsiella sp.; assay: as above; type: cell-based; conditions: 50 isolates, 24-hour, 35° C.
Method: as §2

[7] = tested on: Neisseria sp.; assay: as above; type: cell-based; conditions: 43 isolates, 24-hour, 35° C.
Method: as §2

[8] = tested on: Proteus sp.; assay: as above; type: cell-based; conditions: 88 isolates, 24-hour, 35° C.
Method: as §2

[9] = tested on: Providencia sp.; assay: as above; type: cell-based; conditions: 12 isolates, 24-hour, 35° C.
Method: as §2

[10] = tested on: Pseudomonas sp.; assay: as above; type: cell-based; conditions: 79 isolates, 24-hour, 35° C.
Method: as §2

[11] = tested on: Salmonella sp.; assay: as above; type: cell-based; conditions: 6 isolates, 24-hour, 35° C.
Method: as §2

[12] = tested on: Serratia sp.; assay: as above; type: cell-based; conditions: 44 isolates, 24-hour, 35° C.
Method: as §2

[13] = tested on: Shiqella sp.; assay: as above; type: cell-based; conditions: 24 h, read-out: MEAN MIC, Shiqella sp.
Method: as §2

[14] = tested on: Staphylococci sp.; assay: as above; type: cell-based; conditions: 38 isolates, 24-hour, 35° C.
Method: as §2

[15] = tested on: Streptococci sp.; assay: as above; type: cell-based; conditions: 14 isolates, 24-hour, 35° C.
Method: as §2

[16] = tested on: Bacteroides sp.; assay: In vitro antibacterial spectrum, agar dilution for anaerobic bacteria (Table II); type: cell-based; conditions: 23 isolates
Method: (§3) The agar dilution method described by A. L. Barry ("The Antimicrobic Susceptibility Test: Principles and Practice", 1976, Lea and Febiger, Philadelphia, Pa.) with compound concentrations of 32 μg/ml to 0.06 μg/ml, was used to determine the inhibitory activity of l-4-[5-(hydroxymethyl)-2-oxooxazolidin-3-yl]benzenesulfonamide for anaerobic bacteria.

[17] = tested on: Clostridium sp.; assay: as above; type: cell-based; conditions: 5 isolates
Method: as §3

[18] = tested on: Fusobacterium sp.; assay: as above; type: cell-based; conditions: 4 isolates
Method: as §3

[19] = tested on: Gram - Anaerobic Cocci; assay: as above; type: cell-based; conditions: 7 isolates
Method: as §3

[20] = tested on: Staphylococcus aureus; assay: In vivo efficacy in mice infected intraperitoneally with Staphylococcus aureus (Table III); conditions: 4 h, mice, intraperitoneal infection, 5% hog gastric mucin, oral dosing at infection and four hours post-infection, Reed-Muench, read-out: ED50, S. auerus
Method: (§4) In-vivo efficacy determinations were performed by inoculating mice interaperitoneally with cultures of the infecting organism diluted to produce 90-100% mortality in control animals within seven days. The diluents used were trypticase soy broth for E. coli, Proteus sp. and Psuedomonas aeruginosa and 5% hog gastric mucin for Staphylococcus aureus infections. The compounds, dissolved or suspended in 0.25% methocel.cndot.H2 O were administered orally by intubation at the time of infection and again at four hours post-infection. Mortality was recorded daily until test termination and the 50 percent effective dose. ED50, was calculated by the Reed-Muench method (Reed, L. G. and Muench, H., "A simple method of estimating fifty percent end points." American Journal of Hygiene, 27, 1938, 493-497).

[21] = tested on: E. coli; assay: In vivo efficacy in mice infected intraperitoneally with E. coli (Table III); conditions: Escherichia coli, 4 h; mice, intraperitoneal infection, trypticase soy broth; oral dosing at infection and four hours post-infection; Reed-Muench; read-out: ED50, E. Coli
Method: as §4

Question: How did the MIC [1] turn out when `NS(=O)(=O)c1ccc(N2C[C@@H](CO)OC2=O)cc1` [Example 2, l-4-[5-(Hydroxymethyl)-2-oxooxazolidin-3-yl]benzenesulfonamide] was run?
Answer: The MIC was 100 µg/mL (≈ 367 µM).

Question: What about the MIC [2] of the same compound?
Answer: The MIC was 50 µg/mL (≈ 184 µM).

Question: What about the MIC [3] of the same compound?
Answer: Its MIC is 29.8 µg/mL (≈ 109 µM).

Question: And the MIC [4]?
Answer: Its MIC is 58.5 µg/mL (≈ 215 µM).

Question: What about the MIC [5] of the same compound?
Answer: Its MIC is 32 µg/mL (≈ 118 µM).

Question: What about the MIC [6] of the same compound?
Answer: The MIC was 39.4 µg/mL (≈ 145 µM).

Question: And the MIC [7]?
Answer: Its MIC is 12.3 µg/mL (≈ 45.2 µM).

Question: And the MIC [8]?
Answer: Its MIC is 29.1 µg/mL (≈ 107 µM).

Question: And the MIC [9]?
Answer: The MIC was 41.3 µg/mL (≈ 152 µM).

Question: What about the MIC [10] of the same compound?
Answer: Its MIC is at least 117 µg/mL.

Question: And the MIC [11]?
Answer: The MIC was 32 µg/mL (≈ 118 µM).

Question: What about the MIC [12] of the same compound?
Answer: Its MIC is at least 96 µg/mL.

Question: What about the MIC [13] of the same compound?
Answer: The MIC was 8 µg/mL (≈ 29.4 µM).

Question: And the MIC [14]?
Answer: Its MIC is 22.3 µg/mL (≈ 81.9 µM).

Question: And the MIC [15]?
Answer: The MIC was 7.7 µg/mL (≈ 28.3 µM).

Question: And the MIC [16]?
Answer: Its MIC is at least 15.1 µg/mL.

Question: And the MIC [17]?
Answer: The MIC was 16.8 µg/mL (≈ 61.7 µM).

Question: And the MIC [18]?
Answer: The MIC was 0.9 µg/mL (≈ 3.31 µM).

Question: What about the MIC [19] of the same compound?
Answer: The MIC was 6.1 µg/mL (≈ 22.4 µM).

Question: What about the ED50 [20] of the same compound?
Answer: The ED50 was 17.1 mg/kg.

Question: What about the ED50 [21] of the same compound?
Answer: The ED50 was 13.2 mg/kg.
